# Test results: patent publication US5863716A, “Treatment of plasmodium” (The Leland Stanford Junior University Board of Trustees, priority 1997, dated 1999)
# Columns and labels:
# P. falciparum = assay: Intraerythrocytic development in long term synchronized culture, parasitemia over consecutive cycles; format: cell-based, Plasmodium falciparum
# Procedure: Synchronized cultures 12 h after invasion were subjected to different concentrations of PPMP. Parasitemias of drug-treated cultures were determined at various time points during two intraerythrocytic cycles and compared to cells grown in the absence of drug.
# The effect of the single lipid analogs to inhibit parasite development in long term culture in consecutive cycles of the parasite growth were investigated. The studies were initiated with synchronized, young rings (0-12h) at 10% parasitemia. In order to ensure healthy growth of the malaria parasite in vitro, the parasitemias of the cultures are not allowed to exceed 10%. Yet under normal conditions a 3-6 fold increase in parasitemias is detected with each round of invasion: thus for each new cycle, the cultures were diluted 4-fold into fresh erythrocytes in the absence or presence of the drug. […] The lowest effective, killing concentration of PDMP over three cycles of growth is 1.0 μM.
# [1] = system: tubovesicular membrane reticulum (TVM) of P. falciparum-infected erythrocytes; assay: Tubovesicular membrane (TVM) morphology, C5-DMB-ceramide labeling, confocal microscopy; format: cell-based; conditions: 5 μM
# Procedure: Serial sections through P. falciparum-infected erythrocytes labeled with C5 -DMB-ceramide (4,4-difluoro-5,7-dimethyl-4-bora-3a,4a-diaza-5-indacene-3-pentanoyl)-sphingosine) 12 h (rings) and 36 h (trophozoites) after invasion.
# Schizont-stage parasites isolated over Percoll were allowed to invade in the presence of RPMI 1640 containing 10% human serum or in the presence of RPMI 1640 containing 10% human serum and 5 μM PPMP. 1×10^8 infected erythrocytes of the appropriate stage were incubated in 1 ml of RPMI 1640 supplemented with 2mg/ml defatted BSA and 20 μM C5 -DMB-ceramide. Cells were washed and fixed as described in Example 5. Sequential micrographs were taken on a custom made laser confocal microscope at 400 nm intervals along the Z axis. Raw data were processed as described previously.
# [2] = PPMP 0.05 μM, time in drug 0 h, time of cycle 12 h, cycle 1
# [3] = PPMP 0.05 μM, time in drug 34 h, time of cycle 46 h, cycle 1, culture fourfold diluted
# [4] = PPMP 0.05 μM, time in drug 60 h, time of cycle 12 h, cycle 2
# [5] = PPMP 0.05 μM, time in drug 80 h, time of cycle 32 h, cycle 2, culture fourfold diluted
# [6] = PPMP 0.05 μM, time in drug 104 h, time of cycle 8 h, cycle 3
# [7] = PPMP 0.1 μM, time in drug 0 h, time of cycle 12 h, cycle 1
# [8] = PPMP 0.1 μM, time in drug 34 h, time of cycle 46 h, cycle 1, culture fourfold diluted
# [9] = PPMP 0.1 μM, time in drug 60 h, time of cycle 12 h, cycle 2
# [10] = PPMP 0.1 μM, time in drug 80 h, time of cycle 32 h, cycle 2, culture fourfold diluted
# [11] = PPMP 0.1 μM, time in drug 104 h, time of cycle 8 h, cycle 3
# [12] = PPMP 0.5 μM, time in drug 0 h, time of cycle 12 h, cycle 1
# [13] = PPMP 0.5 μM, time in drug 34 h, time of cycle 46 h, cycle 1, culture fourfold diluted
# [14] = PPMP 0.5 μM, time in drug 60 h, time of cycle 12 h, cycle 2
# [15] = PPMP 0.5 μM, time in drug 80 h, time of cycle 32 h, cycle 2, culture fourfold diluted
# [16] = PPMP 0.5 μM, time in drug 104 h, time of cycle 8 h, cycle 3
# [17] = PPMP 1.0 μM, time in drug 0 h, time of cycle 12 h, cycle 1
# [18] = PPMP 1.0 μM, time in drug 34 h, time of cycle 46 h, cycle 1, culture fourfold diluted
# [19] = PPMP 1.0 μM, time in drug 60 h, time of cycle 12 h, cycle 2
# [20] = PPMP 1.0 μM, time in drug 80 h, time of cycle 32 h, cycle 2, culture fourfold diluted
# [21] = PPMP 1.0 μM, time in drug 104 h, time of cycle 8 h, cycle 3
# [22] = PPMP 5.0 μM, time in drug 0 h, time of cycle 12 h, cycle 1
# [23] = PPMP 5.0 μM, time in drug 34 h, time of cycle 46 h, cycle 1, culture fourfold diluted
# [24] = PPMP 5.0 μM, time in drug 60 h, time of cycle 12 h, cycle 2
# [25] = PPMP 5.0 μM, time in drug 80 h, time of cycle 32 h, cycle 2, culture fourfold diluted
# [26] = PPMP 5.0 μM, time in drug 104 h, time of cycle 8 h, cycle 3
compound,measurement,setting,value
"CCCCCCCCCCCCCCCC(=O)N[C@H](CN1CCOCC1)[C@H](O)c1ccccc1 (relative stereo) [PPMP, dl-threo-1-phenyl-2-palmitoylamino-3-morpholino-1-propanol]",effect on trophozoite stage parasites,P. falciparum,blocks the development of trophozoite stage parasites
same,effect on ring development,"P. falciparum; 5 μM, first cycle",completely inhibits rings in their first cycle growth
same,growth inhibition with increasing concentration,P. falciparum; 0.05 to 1.0 μM PPMP,gradual increase in the observed growth inhibition
same,"parasitemia [%], ring",P. falciparum; [2],10%
same,"parasitemia [%], schizont",P. falciparum; [2],0%
same,"parasitemia [%], trophozoite",P. falciparum; [2],0%
same,"parasitemia [%], ring",P. falciparum; [3],0%
same,"parasitemia [%], schizont",P. falciparum; [3],5%
same,"parasitemia [%], trophozoite",P. falciparum; [3],4%
same,"parasitemia [%], ring",P. falciparum; [4],5%
same,"parasitemia [%], schizont",P. falciparum; [4],1%
same,"parasitemia [%], trophozoite",P. falciparum; [4],0%
same,"parasitemia [%], ring",P. falciparum; [5],5%
same,"parasitemia [%], schizont",P. falciparum; [5],0%
same,"parasitemia [%], trophozoite",P. falciparum; [5],0%
same,"parasitemia [%], ring",P. falciparum; [6],1%
same,"parasitemia [%], schizont",P. falciparum; [6],0%
same,"parasitemia [%], trophozoite",P. falciparum; [6],0%
same,"parasitemia [%], ring",P. falciparum; [7],10%
same,"parasitemia [%], schizont",P. falciparum; [7],0%
same,"parasitemia [%], trophozoite",P. falciparum; [7],0%
same,"parasitemia [%], ring",P. falciparum; [8],0%
same,"parasitemia [%], schizont",P. falciparum; [8],5%
same,"parasitemia [%], trophozoite",P. falciparum; [8],4%
same,"parasitemia [%], ring",P. falciparum; [9],4%
same,"parasitemia [%], schizont",P. falciparum; [9],1%
same,"parasitemia [%], trophozoite",P. falciparum; [9],0%
same,"parasitemia [%], ring",P. falciparum; [10],4%
same,"parasitemia [%], schizont",P. falciparum; [10],0%
same,"parasitemia [%], trophozoite",P. falciparum; [10],0%
same,"parasitemia [%], ring",P. falciparum; [11],1%
same,"parasitemia [%], schizont",P. falciparum; [11],0%
same,"parasitemia [%], trophozoite",P. falciparum; [11],0%
same,"parasitemia [%], ring",P. falciparum; [12],10%
same,"parasitemia [%], schizont",P. falciparum; [12],0%
same,"parasitemia [%], trophozoite",P. falciparum; [12],0%
same,"parasitemia [%], ring",P. falciparum; [13],0%
same,"parasitemia [%], schizont",P. falciparum; [13],4%
same,"parasitemia [%], trophozoite",P. falciparum; [13],5%
same,"parasitemia [%], ring",P. falciparum; [14],4%
same,"parasitemia [%], schizont",P. falciparum; [14],1%
same,"parasitemia [%], trophozoite",P. falciparum; [14],0%
same,"parasitemia [%], ring",P. falciparum; [15],5%
same,"parasitemia [%], schizont",P. falciparum; [15],0%
same,"parasitemia [%], trophozoite",P. falciparum; [15],0%
same,"parasitemia [%], ring",P. falciparum; [16],1%
same,"parasitemia [%], schizont",P. falciparum; [16],0%
same,"parasitemia [%], trophozoite",P. falciparum; [16],0%
same,"parasitemia [%], ring",P. falciparum; [17],10%
same,"parasitemia [%], schizont",P. falciparum; [17],0%
same,"parasitemia [%], trophozoite",P. falciparum; [17],0%
same,"parasitemia [%], ring",P. falciparum; [18],0%
same,"parasitemia [%], schizont",P. falciparum; [18],4%
same,"parasitemia [%], trophozoite",P. falciparum; [18],4%
same,"parasitemia [%], ring",P. falciparum; [19],3%
same,"parasitemia [%], schizont",P. falciparum; [19],2%
same,"parasitemia [%], trophozoite",P. falciparum; [19],0%
same,"parasitemia [%], ring",P. falciparum; [20],3%
same,"parasitemia [%], schizont",P. falciparum; [20],0%
same,"parasitemia [%], trophozoite",P. falciparum; [20],0%
same,"parasitemia [%], ring",P. falciparum; [21],1%
same,"parasitemia [%], schizont",P. falciparum; [21],0%
same,"parasitemia [%], trophozoite",P. falciparum; [21],0%
same,"parasitemia [%], ring",P. falciparum; [22],10%
same,"parasitemia [%], schizont",P. falciparum; [22],0%
same,"parasitemia [%], trophozoite",P. falciparum; [22],0%
same,"parasitemia [%], ring",P. falciparum; [23],9%
same,"parasitemia [%], schizont",P. falciparum; [23],0%
same,"parasitemia [%], trophozoite",P. falciparum; [23],0%
same,"parasitemia [%], ring",P. falciparum; [24],2%
same,"parasitemia [%], schizont",P. falciparum; [24],0%
same,"parasitemia [%], trophozoite",P. falciparum; [24],0%
same,"parasitemia [%], ring",P. falciparum; [25],0%
same,"parasitemia [%], schizont",P. falciparum; [25],0%
same,"parasitemia [%], trophozoite",P. falciparum; [25],0%
same,"parasitemia [%], ring",P. falciparum; [26],0%
same,"parasitemia [%], schizont",P. falciparum; [26],0%
same,"parasitemia [%], trophozoite",P. falciparum; [26],0%
same,effect on development,"P. falciparum; concentrations as low as 0.05 μM, first cycle",do not stop development through the first cycle
same,efficacy compared with PDMP,P. falciparum; long term culture,more effective than PDMP
same,TVM morphology in rings formed in the presence of drug,[1]; 240 optical sections through 20 cells,markedly devoid of tubular connections
same,intraerythrocytic structures at 36 h in continued presence of drug,[1]; 36 h in the life cycle,remain as isolated spots
